Marks after values point to notes of the source that are not given here.
System: adriamycin-induced myocardial injury model in rat
Experiment: Protective effects on adriamycin-induced myocardial injury model in rat
Type: in vivo, Wistar rats
Excerpt: Coenzyme Q10 can reduce the cardiotoxicity induced by adriamycin. In this experiment, to adriamycin-induced myocardial injury model in rat was constructed for detecting the effects of coenzyme Q10 nanoemulsion of protecting rats from adriamycin-induced myocardial injury.
40 Wistar rats (250±15 g, F/M=1:1) were randomly divided into five groups (8 animals each group): negative control group, ADM group, ADM+coenzyme Q10 (low dosage) group, ADM+coenzyme Q10 (medium dosage) group and ADM+coenzyme Q10 (high dosage) group. The control group received intraperitoneal injection of physiological saline at 10 mL/kg/d for 9 days. The ADM group received intraperitoneal injection of ADM at 3 mg/kg every other day for 5 times in total (9 days). The ADM+coenzyme Q10 (low, medium and high dosages) groups respectively received tail vein injection of coenzyme Q10 at 1.5, 3.0 and 6.0 mg/kg/d for 9 days, and ADM was administered at 3 mg/kg every other day for 5 times in total (9 days) (10 min after coenzyme Q10 injection, intraperitoneal injection of ADM 3 mg/kg was performed). The rats were sacrificed on the 10th day for histopathological examination and detection for the contents of malonaldehyde and SOD. The histopathological examination was performed by the steps of taking myocardial tissue from the left ventricular, fixing with 10% formaldehyde, slicing according to the conventional methods, and staining with HE.

[1] = ADM group, 3 mg/kg i.p. x5, n = 8
[2] = ADM group: ADM 3 mg/kg i.p. every other day, 5 times, n = 8

## COc1cccc2c1C(=O)c1c(O)c3c(c(O)c1C2=O)C[C@@](O)(C(=O)CO)C[C@@H]3O[C@H]1C[C@H](N)[C@H](O)[C@H](C)O1 [ADM, adriamycin]
ADM group (FIG. 2) compared with normal conditions
  alterations of rat electrocardiogram: absent P-wave, flattened T-wave, obviously reduced ST-T segment, and decreased QRS waves
[1]
  myocardial MDA (nmol/mg prot): 8.99 ± 1.17^a nmol/mg prot
  myocardial SOD (U/mg prot): 330.02 ± 15.39^a U/mg prot
[2]
  Pathological classification of myocardial injury: number of rats in grade II: 3
  Pathological classification of myocardial injury: number of rats in grade III: 5
Rats received intraperitoneal injection of ADM
  myocardial tissue slice (stained with HE): seriously injured

From patent US20100189596A1, “COMPOSITE EMULSIFIER, AN EMULSION PREPARED FROM IT AND THE PREPARATION METHOD THEREOF” (SHENYANG PHARMACEUTICAL UNIVERSITY, priority 2007, published 2010)
